Data published in patent publication US11053204B2, “Pyrimidinyloxy benzene derivatives as herbicides” (FMC Corporation, priority 2015, dated 2021).

Legend:
Assay in all cases: Test C postemergence, plant response rating
Type in all cases: in vivo
[1] = system: barnyardgrass (Echinochloa crus-galli); details: Echinochloa crus-galli, post-emergence
Procedure, shortened: (§1)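 Visual injury score, 0 = no effect, 100 = complete control, assigned against untreated controls after 13 to 15 d in the greenhouse. Compounds were applied in a surfactant-containing non-phytotoxic solvent mix, preemergence to seeded loam/sand or silt loam soil, or postemergence to 1- to 4-leaf plants (2 to 18 cm).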

[2] = system: blackgrass (Alopecurus myosuroides); details: Alopecurus myosuroides, post-emergence
Procedure, shortened: as §1

corn (Zea mays) = details: Zea mays, post-emergence
Procedure, shortened: as §1

[3] = system: crabgrass, large (large crabgrass, Digitaria sanguinalis); details: Digitaria sanguinalis, post-emergence
Procedure, shortened: as §1

[4] = system: galium (catchweed bedstraw, Galium aparine); details: Galium, post-emergence
Procedure, shortened: as §1

kochia (Kochia scoparia) = details: Bassia scoparia, post-emergence
Procedure, shortened: as §1

[5] = system: lambsquarters (Chenopodium album); details: Chenopodium album, post-emergence
Procedure, shortened: as §1

[6] = system: nutsedge, yellow (yellow nutsedge, Cyperus esculentus); details: Cyperus, post-emergence
Procedure, shortened: as §1

[7] = system: oat, wild (wild oat Avena fatua); details: Avena fatua, post-emergence
Procedure, shortened: as §1

[8] = system: oilseed rape (Brassica napus); details: Brassica napus, post-emergence
Procedure, shortened: as §1

[9] = system: ragweed (common ragweed, Ambrosia elatior); details: Ambrosia artemisiifolia, post-emergence
Procedure, shortened: as §1

[10] = system: ryegrass, Italian (Italian ryegrass, Lolium multiflorum); details: Lolium multiflorum, post-emergence
Procedure, shortened: as §1

soybean (Glycine max) = details: Glycine max, post-emergence
Procedure, shortened: as §1

[11] = system: velvetleaf (Abutilon theophrasti); details: Abutilon theophrasti, post-emergence
Procedure, shortened: as §1

[12] = system: wheat (winter wheat, Triticum aestivum); details: Triticum aestivum, post-emergence
Procedure, shortened: as §1

`CCCOC(=O)c1c(Br)cccc1Oc1ncc(Cl)cn1` [Compound 13, propyl 2-bromo-6-[(5-chloro-2-pyrimidinyl)oxy]benzoate] was tested, and the pest or weed control at 4 g/ha ([1]; 4 g ai/ha, scale of 0 to 100) was 5%, the pest or weed control at 8 g/ha ([1]; 8 g ai/ha, scale of 0 to 100) was 5% and the pest or weed control at 16 g/ha ([1]; 16 g ai/ha, scale 0 to 100) was 10%. It also gave a pest or weed control at 31 g/ha ([1]; 31 g ai/ha, scale 0 to 100) of 10%, a pest or weed control at 4 g/ha ([2]; 4 g ai/ha, scale of 0 to 100) of 0% and a pest or weed control at 8 g/ha ([2]; 8 g ai/ha, scale of 0 to 100) of 0%. It also gave a pest or weed control at 16 g/ha ([2]; 16 g ai/ha, scale 0 to 100) of 0%, a pest or weed control at 31 g/ha ([2]; 31 g ai/ha, scale 0 to 100) of 5% and a Corn plant response rating (crop injury, 0 = no effect, 100 = complete kill) at 4 g/ha (corn (Zea mays); 4 g ai/ha, scale of 0 to 100) of 5%. For the same molecule, the Corn plant response rating (crop injury, 0 = no effect, 100 = complete kill) at 8 g/ha (corn (Zea mays); 8 g ai/ha, scale of 0 to 100) was 5%, the Corn plant response rating (crop injury, 0 = no effect, 100 = complete kill) at 16 g/ha (corn (Zea mays); 16 g ai/ha, scale 0 to 100) was 10% and the Corn plant response rating (crop injury, 0 = no effect, 100 = complete kill) at 31 g/ha (corn (Zea mays); 31 g ai/ha, scale 0 to 100) was 5%. The pest or weed control at 4 g/ha ([3]; 4 g ai/ha, scale of 0 to 100) was 5%, the pest or weed control at 8 g/ha ([3]; 8 g ai/ha, scale of 0 to 100) was 5% and the pest or weed control at 16 g/ha ([3]; 16 g ai/ha, scale 0 to 100) was 5%. It also gave a pest or weed control at 31 g/ha ([3]; 31 g ai/ha, scale 0 to 100) of 15%, a pest or weed control at 4 g/ha ([4]; 4 g ai/ha, scale of 0 to 100) of 10% and a pest or weed control at 8 g/ha ([4]; 8 g ai/ha, scale of 0 to 100) of 5%. For the same molecule, the pest or weed control at 16 g/ha ([4]; 16 g ai/ha, scale 0 to 100) was 65%, the pest or weed control at 31 g/ha ([4]; 31 g ai/ha, scale 0 to 100) was 50% and the pest or weed control at 4 g/ha (kochia (Kochia scoparia); 4 g ai/ha, scale of 0 to 100) was 0%. The pest or weed control at 8 g/ha (kochia (Kochia scoparia); 8 g ai/ha, scale of 0 to 100) was 5%, the pest or weed control at 16 g/ha (kochia (Kochia scoparia); 16 g ai/ha, scale 0 to 100) was 30% and the pest or weed control at 31 g/ha (kochia (Kochia scoparia); 31 g ai/ha, scale 0 to 100) was 30%. It also gave a pest or weed control at 4 g/ha ([5]; 4 g ai/ha, scale of 0 to 100) of 30%, a pest or weed control at 8 g/ha ([5]; 8 g ai/ha, scale of 0 to 100) of 60% and a pest or weed control at 16 g/ha ([5]; 16 g ai/ha, scale 0 to 100) of 50%. The pest or weed control at 31 g/ha ([5]; 31 g ai/ha, scale 0 to 100) was 55%, the pest or weed control at 4 g/ha ([6]; 4 g ai/ha, scale of 0 to 100) was 0% and the pest or weed control at 8 g/ha ([6]; 8 g ai/ha, scale of 0 to 100) was 0%. It also gave a pest or weed control at 16 g/ha ([6]; 16 g ai/ha, scale 0 to 100) of 5%, a pest or weed control at 31 g/ha ([6]; 31 g ai/ha, scale 0 to 100) of 5% and a pest or weed control at 4 g/ha ([7]; 4 g ai/ha, scale of 0 to 100) of 0%. For the same molecule, the pest or weed control at 8 g/ha ([7]; 8 g ai/ha, scale of 0 to 100) was 0%, the pest or weed control at 16 g/ha ([7]; 16 g ai/ha, scale 0 to 100) was 0% and the pest or weed control at 31 g/ha ([7]; 31 g ai/ha, scale 0 to 100) was 5%. It also gave a plant injury at 4 g/ha ([8]; 4 g ai/ha, scale of 0 to 100) of 0%, a plant injury at 8 g/ha ([8]; 8 g ai/ha, scale of 0 to 100) of 0% and a plant injury at 16 g/ha ([8]; 16 g ai/ha, scale 0 to 100) of 0%. The plant injury at 31 g/ha ([8]; 31 g ai/ha, scale 0 to 100) was 35%, the pest or weed control at 4 g/ha ([9]; 4 g ai/ha, scale of 0 to 100) was 5% and the pest or weed control at 8 g/ha ([9]; 8 g ai/ha, scale of 0 to 100) was 5%. It also gave a pest or weed control at 16 g/ha ([9]; 16 g ai/ha, scale 0 to 100) of 5%, a pest or weed control at 31 g/ha ([9]; 31 g ai/ha, scale 0 to 100) of 5% and a pest or weed control at 4 g/ha ([10]; 4 g ai/ha, scale of 0 to 100) of 0%. The pest or weed control at 8 g/ha ([10]; 8 g ai/ha, scale of 0 to 100) was 0%, the pest or weed control at 16 g/ha ([10]; 16 g ai/ha, scale 0 to 100) was 0% and the pest or weed control at 31 g/ha ([10]; 31 g ai/ha, scale 0 to 100) was 0%. The plant injury at 4 g/ha (soybean (Glycine max); 4 g ai/ha, scale of 0 to 100) was 15%, the plant injury at 8 g/ha (soybean (Glycine max); 8 g ai/ha, scale of 0 to 100) was 20% and the plant injury at 16 g/ha (soybean (Glycine max); 16 g ai/ha, scale 0 to 100) was 30%. It also gave a plant injury at 31 g/ha (soybean (Glycine max); 31 g ai/ha, scale 0 to 100) of 35%, a pest or weed control at 4 g/ha ([11]; 4 g ai/ha, scale of 0 to 100) of 15% and a pest or weed control at 8 g/ha ([11]; 8 g ai/ha, scale of 0 to 100) of 15%. The pest or weed control at 16 g/ha ([11]; 16 g ai/ha, scale 0 to 100) was 20%, the pest or weed control at 31 g/ha ([11]; 31 g ai/ha, scale 0 to 100) was 25% and the plant injury at 4 g/ha ([12]; 4 g ai/ha, scale of 0 to 100) was 0%. It also gave a plant injury at 8 g/ha ([12]; 8 g ai/ha, scale of 0 to 100) of 0%, a plant injury at 16 g/ha ([12]; 16 g ai/ha, scale 0 to 100) of 0% and a plant injury at 31 g/ha ([12]; 31 g ai/ha, scale 0 to 100) of 0%.
